From patent publication US12295937B2, “Psychoactive medicines and their use for treating psychiatric and neurological conditions and disorders” (Transcend Therapeutics, Inc., priority 2021, dated 2025)
Read-outs that look alike come from different tables or passages of the source.

What was measured:
[1] = Open field test (OFT); type: in vivo, rat; conditions: 5 or 15 mg/kg IP, 30 minutes before testing
Method: Method: Consecutive beam breaks and/or video-tracking of time spent in the center versus periphery of the open field are measured. Also measured are parameters such as distance traveled and ambulatory activity (horizontal and vertical) for the duration of the test session.
The open field test (OFT) capitalizes on a rodent's innate fear of open spaces to assess anxiety-like behavior. More time spent in the center of an open field reflects an anxiolytic (anti-anxiety) effect.
Locomotor activity was also measured in the OFT.
To investigate whether MBDB has an anti-anxiety (anxiolytic) effect, rats were dosed with MBDB (0.5-30 mg/kg, IP) or vehicle (saline) and 30-minutes later were tested in the open field for 30 minutes. This anxiety test capitalizes on a rodents' innate fear of wide-open spaces and propensity to hug the walls when placed into the open field. Therefore, a drug that increases the time spent in the center of the open field has anxiolytic activity and predicts utility for treating anxiety in humans.

[2] = Reserpine-induced fibromyalgia model, vonFrey test; type: in vivo, rat; conditions: 15 mg/kg IP, 30 min before vonFrey test, day 4
Method: In this Example, male Sprague Dawley rats are tested in a behavioral model of FMA based on the protocol from Nakagura et al. (2009) Pain 146:26. This model uses three daily doses of reserpine (1 mg/kg, SC) or 0.5% acetic acid vehicle to reduce pain thresholds (i.e., increase pain perception) in the Von Frey Test (vFT, procedure outlined below).
Von Frey Test (vFT) procedure: Increasing pain thresholds in this test are consistent with a reduction in pain perception. Prior to the start of dosing, rats are tested for their baseline mechanical pain threshold. For von Frey measurements, animals are placed into wire bottom cubicles with opaque Plexiglas walls, allowing access to the underside of their paws. Animals are habituated to this environment for at least 30 minutes before the start of the von Frey filament application. Static allodynia is measured using Semmes-Weinstein von Frey filaments (Stoelting, Wood Dale, IL). Mechanical allodynia is tested by touching the plantar surface of the animals' left and right hind paws with von Frey filaments which deliver a calibrated amount of force. Each von Frey filament is presented perpendicularly to the plantar surface for approximately 6 seconds of constant application in either ascending or descending strength in a modified up-and-down method (Chaplan et al. (1994) J Neurosci. Meth. 53:55). Stimulation is presented at intervals of several seconds, allowing for apparent resolution of any behavioral responses to previous stimuli. A positive response is noted if the paw is sharply withdrawn. Flinching immediately upon removal of the hair is also considered a positive response. Ambulation is considered an ambiguous response, and, in such cases, the stimulus is repeated.
VonFrey measurements: Animals were placed into wire bottom cubicles with opaque Plexiglas walls, allowing access to the underside of their paws. […] Static allodynia was measured using Semmes-Weinstein von Frey filaments (Stoelting, Wood Dale, IL). […] The average hindpaw thresholds were determined 60-min post-injection. […]

[3] = Rat plasma pharmacokinetics by administration route; type: in vivo; conditions: male, SD
Text: Plasma was collected 0.25, 0.5, 1-, 2-, 4-, and 8-hours post-dose.

[4] = Mouse head-twitch response (HTR) test; type: in vivo; conditions: i.p., HTR measured for 10 minutes
Method: Head twitch response (HTR) was evaluated using C57BL/6J mice (ages 7-10 weeks). Mice were ear tagged at least three days after arrival to the animal facility and allowed to rest for at least three days before behavioral testing. Small magnets (SuperMagnetMan—N45 magnet 3 mm diameter, 0.5 mm thickness) were glued to car tags (Stoelting—La Pias Aluminum Ear Tags) at least two days before mice were car tagged. The experimental setup was adapted from Gonzales-Macso (de la Fuente Revenga et al., 2019) and Kwan (Jefferson et al., 2022; Savalia et al., 2021), including experimental apparatus and MATLAB code for analysis.
Doses were randomly assigned, and age-matched controls were injected with vehicle and randomly interspersed with drug conditions. At least three animals per sex were used for each drug dose and condition. If animals were used in multiple HTR experiments, experimental sessions took place at least one week apart. Two animals were run at a time. Immediately after i.p. injection of psychedelic or entactogen drug, animals were placed in separate plastic boxes within a larger chamber (Home Depot—28 in. W×32 in. H×21.5 in. D), and HTR was measured for 10 minutes. A small lamp was placed in the back of the larger chamber, and a high-speed camera (Basler-Aca 1920-155 μm) was suspended from the ceiling to record video of the animals in the plastic boxes. […]

[5] = system: Sprague Dawley rat neurons; assay: Neurite outgrowth in E18 cortical cultures; type: cell-based; conditions: 10 μM, applied day 1, fixed day 3-4
Method: Neuroplasticity is defined as changes in the structure, connections and function of neurons, including neurite outgrowth. […] E18 cortical cultures were harvested and plated on culture dishes. […] Neurite length was measured using ImageJ software.

[6] = biological target: vesicular monoamine transporter 2 (VMAT2) (Homo sapiens, UniProt Q05940); conditions: cited from earlier work
[7] = rats, intraperitoneal; cited from earlier work
[8] = biological target: NET (Rattus norvegicus, UniProt Q63380); assay: [3H]NE uptake inhibition in rat brain synaptosomes; conditions: read-out: Reuptake inhibition: IC50; rat brain synaptosomes
Sequence of NET (Q63380 1-617): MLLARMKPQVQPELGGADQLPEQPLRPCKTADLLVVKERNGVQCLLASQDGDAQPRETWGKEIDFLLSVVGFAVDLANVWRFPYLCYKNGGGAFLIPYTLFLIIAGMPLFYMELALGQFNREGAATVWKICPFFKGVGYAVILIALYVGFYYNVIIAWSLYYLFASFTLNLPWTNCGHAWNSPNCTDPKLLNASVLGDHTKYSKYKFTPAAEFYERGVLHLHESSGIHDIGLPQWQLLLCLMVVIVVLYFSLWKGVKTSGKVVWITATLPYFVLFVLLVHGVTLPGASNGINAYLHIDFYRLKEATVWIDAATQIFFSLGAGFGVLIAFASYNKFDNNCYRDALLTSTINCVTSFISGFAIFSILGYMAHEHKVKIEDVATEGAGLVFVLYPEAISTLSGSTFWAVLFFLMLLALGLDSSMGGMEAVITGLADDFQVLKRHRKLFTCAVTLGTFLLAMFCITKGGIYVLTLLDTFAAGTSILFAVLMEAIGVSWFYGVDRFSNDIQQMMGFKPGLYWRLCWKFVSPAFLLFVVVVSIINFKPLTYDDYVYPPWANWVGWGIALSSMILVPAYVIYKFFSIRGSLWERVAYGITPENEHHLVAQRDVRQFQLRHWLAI

Sequence of vesicular monoamine transporter 2 (VMAT2) (Q05940 whole entry, species assumed): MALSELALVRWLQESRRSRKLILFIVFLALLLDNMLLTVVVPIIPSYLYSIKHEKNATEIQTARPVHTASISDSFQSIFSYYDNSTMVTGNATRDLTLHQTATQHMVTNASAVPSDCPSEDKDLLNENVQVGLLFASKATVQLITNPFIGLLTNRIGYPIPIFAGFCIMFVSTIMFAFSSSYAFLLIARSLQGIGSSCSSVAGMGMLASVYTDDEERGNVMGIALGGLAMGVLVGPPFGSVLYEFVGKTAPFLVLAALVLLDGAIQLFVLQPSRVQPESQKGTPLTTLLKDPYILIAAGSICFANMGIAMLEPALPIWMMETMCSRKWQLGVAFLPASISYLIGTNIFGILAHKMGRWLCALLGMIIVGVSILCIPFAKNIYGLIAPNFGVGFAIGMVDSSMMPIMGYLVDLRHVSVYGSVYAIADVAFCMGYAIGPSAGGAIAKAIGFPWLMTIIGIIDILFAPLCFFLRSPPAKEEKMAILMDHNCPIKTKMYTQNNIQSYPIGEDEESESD

With CNC(C)C(=O)c1ccc2c(c1)OCO2 (stereo not shown) [Methylone, 3,4-methylenedioxy-N-methylcathinone] the “Time spent in the center of the open field vs. vehicle” value [1] was “significantly increases the time spent in the center of the open field”, the Paw withdrawal thresholds [2] was “significantly increased paw withdrawal thresholds” and the AUC(0-inf) ([3]; IM 15 mg/kg) was 4610 ng·h/mL. It also gave a Cmax ([3]; IM 15 mg/kg) of 5400 ng/mL, a half-life ([3]; IM 15 mg/kg) of 44.4 min and an AUC(0-inf) ([3]; IM 20 mg/kg) of 6370 ng·h/mL. For the same molecule, the Cmax ([3]; IM 20 mg/kg) was 5920 ng/mL, the half-life ([3]; IM 20 mg/kg) was 42 min and the AUC(0-inf) ([3]; IP 15 mg/kg) was 2590 ng·h/mL. The Cmax ([3]; IP 15 mg/kg) was 1250 ng/mL, the half-life ([3]; IP 15 mg/kg) was 56.1 min and the AUC(0-inf) ([3]; PO 15 mg/kg) was 2290 ng·h/mL. For the same molecule, the Cmax ([3]; PO 15 mg/kg) was 552 ng/mL, the half-life ([3]; PO 15 mg/kg) was 136 min and the AUC(0-inf) ([3]; SC 15 mg/kg) was 4330 ng·h/mL. It also gave a Cmax ([3]; SC 15 mg/kg) of 3650 ng/mL, a half-life ([3]; SC 15 mg/kg) of 49.2 min and an AUC(0-inf) ([3]; SC 20 mg/kg) of 5960 ng·h/mL. For the same molecule, the Cmax ([3]; SC 20 mg/kg) was 4320 ng/mL, the half-life ([3]; SC 20 mg/kg) was 52.2 min and the Head-twitch behaviors [4] was “no effect on head-twitch behaviors at any dose tested”. For the same molecule, the “Increase in neurite length vs. vehicle” value [5] was roughly 2 fold, the “Affinity for VMAT2, times lower than that of MDMA” value [6] was “about 13 ×” and the half-life [7] was 60 to 120 min. The IC50 [8] was 130 nM.
